Where two headings read alike, the source gives them in different places.
Tests used:
HUVECs = assay: HUVEC growth inhibition assay (crystal violet); assay type: cell-based; conditions: Homo sapiens; for activity at 30 µM: 72 hours; for inhibition at 30 µM: read-out: Inhibition of HUVECs growth compared with the control
Description: These compounds were tested in a growth inhibition assay using HUVECs as follows. 5×10^3 Human umbilical vein endothelial cells (HUVECs) were seeded in two 96-well plates (Clonetic # CC3162). Each well contains 100 μl of endothelial cell basal medium-2. After 24 hr, 100 μl endothelial cell growth medium-2 containing a test compound was added to each well of the two plates. The cells in the first plate were immediately stained with 0.5% crystal violet in 20% methanol for 10 minutes, rinsed with water, and air-dried. The cells in the second plate were incubated for 72 hours at 37° C. and then stained in the same manner. Each well in the first and second plates was eluted with 1:1 ethanol and 0.1 M sodium citrate, and absorbance of the resulting solution was measured at 540 nm with an ELISA reader.
Basal and control experiments were also conducted according to the above procedure, except that 100 μl endothelial basal medium-2 and 100 μl endothelial growth medium-2 were added to the second plates, respectively, instead of endothelial cell growth medium-2 containing a test compound.
HUVECs growth in each well was compared with that of the basal experiment according to the following equation: % basal=(Asecond plate−Afirst plate)/(Asecond plate of basal−Afirst plate of basal)×100%
where Asecond plate is the absorbance of the solution in the second plate; Afirst plate is the absorbance of the solution in the first plate; Asecond plate of basal is the absorbance of the solution in the second plate of the basal; and Afirst plate of basal is the absorbance of the solution in the first plate of the basal.

[1] = test system: VEGF-induced angiogenic effect; assay: Matrigel plug angiogenesis in nude mice, VEGF; assay type: in vivo
Description: (§1) Nude mice were subcutaneously injected with a Matrigel plug containing 150 ng/mL VEGF or bFGF. Vehicle or Compound 1 was administrated to the mice orally (1 mg/kg/day, 3 mg/kg/day, 10 mg/kg/day, 30 mg/kg/day, or 100 mg/kg/day) for seven days. The angiogenic response was monitored visually through the transparent skin. […] The plugs were removed, fixed in 4% formaldehyde, embedded in paraffin, sectioned at 5-Tm thick for histological analysis, and blood vessel growth quantified by hematoxylin-eosin staining. All photos were taken at 40× magnification.
(§2) In a quantitative analysis of angiogenic effect, nude mice were treated as described above, and the plugs were removed and dissolved. Hemoglobin concentrations were measured using a hemoglobin detection kit (Sigma Chem. Co.) as indices of angiogenesis. Means±S.E. (n=3) were presented (see FIG. 1). Symbol “***” represents P<0.001 that are compared with the control.

[2] = test system: bFGF-induced tube formation of HUVECs; assay: Inhibition of bFGF-induced tube formation of HUVECs on Matrigel; assay type: cell-based, Human; conditions: 10 TM compound, bFGF 10 ng/mL, Matrigel 10 mg/mL
Description: (§3) HUVECs were cultured onto a chamber slide, which was pre-coated with Matrigel (10 mg/mL). Cells were treated without Compound 1 (control) or with Compound 1 (10 TM). VEGF (10 ng/mL) or bFGF (10 ng/mL) was added to induce tube formation. All photos were taken at 100× magnification.

[3] = test system: VEGF-induced tube formation of HUVECs; assay: Inhibition of VEGF-induced tube formation of HUVECs on Matrigel; assay type: cell-based, Human; conditions: 10 TM compound, VEGF 10 ng/mL, Matrigel 10 mg/mL
Description: as §3

[4] = test system: bFGF-induced angiogenic effect; assay: Matrigel plug angiogenesis in nude mice, bFGF; assay type: in vivo
Description: as §1, §2

[5] = test system: VEGF-induced cell proliferation of HUVECs; assay: Inhibition of VEGF-induced DNA synthesis ([3H]thymidine incorporation) in HUVECs; assay type: cell-based; conditions: Homo sapiens, HUVEC
Description: (§4) Human umbilical vein endothelial cells (HUVECs) were incubated in the absence of Compound 1 (basal and control) or presence of Compound 1 (with a concentration of […], 0.03 TM, 0.1 TM, 0.3 TM, or 1 TM). Vascular endothelial growth factor (VEGF) or basic fibroblast growth factor (bFGF) was added (except for basal) to induce DNA synthesis, which was detected based on [^3H]thymidine incorporation.

A549 lung tumor cells = assay: Anti-tumor activity, survival of nude mice with A549 lung tumor cells in the pleural space; assay type: in vivo; conditions: oral 10 mg/kg/day, 10^6 A549 cells in pleural space, FIG. 2
Description: 10^6 A549 lung tumor cells were introduced into the pleural space of nude mice. Compound 1 was administrated to the mice orally (10 mg/kg/day). The survival rates of Compound 1-treated mice and control mice were compared (FIG. 2). The life span (i.e., the medium survival time) of Compound 1-treated mice was about 1.8 times that of control mice, as analyzed by a % T/C value [(median survival time of treatment/median survival time of control)×100].

[6] = test system: bFGF-induced cell proliferation of HUVECs; assay: Inhibition of bFGF-induced DNA synthesis ([3H]thymidine incorporation) in HUVECs; assay type: cell-based; conditions: Homo sapiens, HUVEC
Description: as §4

[7] = read-out: HUVEC growth, % of Basal
[8] = read-out: HUVEC growth, % of Control

| Compound | activity at 30 µM (HUVECs; [7]) [%] | activity at 30 µM (HUVECs; [8]) [%] | inhibition at 30 µM (HUVECs) [%] | other results |
| --- | --- | --- | --- | --- |
| OCc1ccc(-c2nn(Cc3ccccc3)c3ccccc23)o1 [Compound 1, 1-benzyl-3-(5′-hydroxymethyl-2′-furyl)indazole] | 92.2 ± 1.8 | 40.6 ± 0.8 | 60 to 76 | VEGF-induced angiogenic effect, blood vessel growth in Matrigel plug (histology) ([1]; oral 1-100 mg/kg/day for seven days, plug with 150 ng/mL VEGF): effectively inhibited; VEGF-induced angiogenic effect, hemoglobin concentration of plug ([1]; oral, seven days, n=3, FIG. 1): effectively inhibited; Inhibition of bFGF-induced formation of networks of elongated endothelial cells [2]: inhibited; Inhibition of VEGF-induced formation of networks of elongated endothelial cells [3]: inhibited; bFGF-induced angiogenic effect, blood vessel growth in Matrigel plug (histology) ([4]; oral 1-100 mg/kg/day for seven days, plug with 150 ng/mL bFGF): effectively inhibited; bFGF-induced angiogenic effect, hemoglobin concentration of plug ([4]; oral, seven days, n=3, FIG. 1): effectively inhibited; IC50 [5]: 90 nM; Life span (medium survival time) relative to control mice (A549 lung tumor cells): about 1.8 times that of control mice; IC50 [6]: 140 nM |
| COC(=O)c1ccc(-c2n[nH]c3ccccc23)o1 [Compound 2] | 193 ± 11.1 | 85 ± 4.9 | 15 | – |
| OCc1ccc(-c2n[nH]c3ccccc23)o1 [Compound 3] | 178 ± 14.7 | 78.4 ± 6.5 | 22 to 40 | – |
| COC(=O)c1ccc(-c2nn(Cc3ccccc3)c3cc(F)ccc23)o1 [Compound 4] | 195 ± 6.5 | 85.9 ± 2.8 | 15 | – |
| OCc1ccc(-c2nn(Cc3ccccc3)c3cc(F)ccc23)o1 [Compound 6] | 83.9 ± 4 | 37 ± 1.8 | 60 to 76 | – |
| Cc1ccc2c(-c3ccc(CO)o3)nn(Cc3ccccc3)c2c1 [Compound 7] | 53.9 ± 7.5 | 23.7 ± 3.3 | 60 to 76 | – |
| Cc1ccc2c(-c3ccc(C(=O)O)o3)nn(Cc3ccccc3)c2c1 [Compound 8] | 163 ± 22.1 | 71.4 ± 9.7 | 22 to 40 | – |
| O=C(O)c1cccc(-c2nn(Cc3ccccc3)c3ccccc23)c1 [Compound 9] | 172 ± 14.4 | 75.8 ± 6.3 | 22 to 40 | – |

Reference: US20070142449A1, “Angiogenesis inhibitors” (priority 2002, published 2007)
